Data reported in US9827219B2, “Compositions and methods for lowering levels of high-sensitivity C-reactive protein (HS-CRP) in a subject” (priority 2012, dated 2017).

Key:
Assay type in all cases: in vivo, human
[1] = system: IL-6; assay: MARINE study, IL-6; details: MARINE ITT, week 12
Method: (§1) A multi-center, placebo-controlled randomized, double-blind, 12-week study with an open-label extension was performed to evaluate the efficacy and safety of AMR101 in patients with fasting triglyceride levels ≧500 mg/dL. The primary objective of the study was to determine the efficacy of AMR101 2 g daily and 4 g daily, compared to placebo, in lowering fasting TG levels in patients with fasting TG levels ≧500 mg/dL and ≦1500 mg/dL (≧5.65 mmol/L and ≦16.94 mmol/L).
(§2) The population for this study was men and women (women of childbearing potential will need to be on contraception or practice abstinence)>18 years of age with a body mass index ≦45 kg/m^2 who were not on lipid-altering therapy or were currently on lipid-altering therapy. Patients currently on statin therapy (with or without ezetimibe) were evaluated by the investigator as to whether this therapy can be safely discontinued at screening, or if it should be continued. If statin therapy (with or without ezetimibe) was to be continued, dose(s) must have been stable for ≧4 weeks prior to randomization. Patients taking non-statin, lipid-altering medications (niacin >200 mg/day, fibrates, fish oil, other products containing omega-3 fatty acids, or other herbal products or dietary supplements with potential lipid-altering effects), either alone or in combination with statin therapy (with or without ezetimibe), must have been able to safely discontinue non-statin, lipid-altering therapy at screening.
(§3) Approximately 240 patients were randomized at approximately 50 centers in North America, South America, Central America, Europe, India, and South Africa. The study was a 58- to 60-week, Phase 3, multi-center study consisting of 3 study periods: (1) A 6- to 8-week screening period that included a diet and lifestyle stabilization and washout period and a TG qualifying period; (2) A 12-week, double-blind, randomized, placebo-controlled treatment period; and (3) A 40-week, open-label, extension period.
(§4) After confirmation of qualifying fasting TG values, eligible patients entered a 12-week, randomized, double-blind treatment period. At Visit 4 (Week 0), patients were randomly assigned to 1 of the following treatment groups: • AMR101 2 g daily, • AMR101 4 g daily, or • Placebo.
Eligible patients were randomly assigned at Visit 4 (Week 0) to receive orally AMR101 2 g daily, AMR101 4 g daily, or placebo for the 12-week double-blind treatment period. AMR101 was provided in 1 g liquid-filled, oblong, gelatin capsules. The matching placebo capsule was filled with light liquid paraffin and contained 0 g of AMR101. During the double-blind treatment period, patients took 2 capsules (AMR101 or matching placebo) in the morning and 2 in the evening for a total of 4 capsules per day. […]

[2] = system: LDL-C; assay: LDL-C in patients with diabetes mellitus-2 (Example 2); details: 4 g/day; for Median placebo-adjusted percent change in LDL-C from baseline to study end: 12 weeks, on statin
Text: (§5) Parameters (a)-(y) can be measured in accordance with any clinically acceptable methodology. For example, triglycerides, total cholesterol, HDL-C and fasting blood sugar can be sample from serum and analyzed using standard photometry techniques. VLDL-TG, LDL-C and VLDL-C can be calculated or determined using serum lipoprotein fractionation by preparative ultracentrifugation and subsequent quantitative analysis by refractometry or by analytic ultracentrifugal methodology. Apo A1, Apo B and hsCRP can be determined from serum using standard nephelometry techniques. Lipoprotein (a) can be determined from serum using standard turbidimetric immunoassay techniques. LDL particle number and particle size can be determined using nuclear magnetic resonance (NMR) spectrometry. Remnants lipoproteins and LDL-phospholipase A2 can be determined from EDTA plasma or serum and serum, respectively, using enzymatic immunoseparation techniques. Oxidized LDL, intercellular adhesion molecule-1 and interleukin-2 levels can be determined from serum using standard enzyme immunoassay techniques. These techniques are described in detail in standard textbooks, for example Tietz Fundamentals of Clinical Chemistry, 6th Ed. (Burtis, Ashwood and Borter Eds.), WB Saunders Company.
(§6) The effect of >96% E-EPA on lipid and inflammatory parameters was evaluated in patients with fasting triglyceride levels ≧150 mg/dl and <499 mg/dl on concomitant statin therapy. Patients with diabetes mellitus-2 were randomized and treated with either 2 g/day >96% E-EPA, 4 g/day >96%, or placebo for twelve weeks. At the end of the treatment period, several diabetes efficacy endpoints were evaluated including, TG, LDL-C, non-HDL-C, VLDL-C, Lp-PLA2, Apo B, TC, HDL-C, VLDL-TG, hs-CRP, oxLDL, and RLP-C.

[3] = system: hsCRP; assay: MARINE study, hsCRP (also by concomitant statin use)
Text: as §5, §1, §2, §3, §4
Eligible patients were randomly assigned at Visit 4 (Week 0) to receive orally AMR101 2 g daily, AMR101 4 g daily, or placebo for the 12-week double-blind treatment period. AMR101 was provided in 1 g liquid-filled, oblong, gelatin capsules. The matching placebo capsule was filled with light liquid paraffin and contained 0 g of AMR101. […]

[4] = system: TG, LDL-C, non-HDL-C, VLDL-C, Lp-PLA2, Apo B, TC, HDL-C, VLDL-TG, hs-CRP, oxLDL, RLP-C; assay: Lipid and inflammatory parameters in statin-treated patients with diabetes mellitus-2, all endpoints (Example 2); details: for Each evaluated endpoint (TG, LDL-C, non-HDL-C, VLDL-C, Lp-PLA2, Apo B, TC, HDL-C, VLDL-TG, hs-CRP, oxLDL, RLP-C), adjusted for placebo: twelve weeks, diabetes mellitus-2, FIG. 1
Text: as §5, §6

For CC/C=C\C/C=C\C/C=C\C/C=C\C/C=C\CCCC(=O)OCC [AMR101, all-cis eicosa-5,8,11,14,17-pentaenoic acid ethyl ester], the “IL-6 change from baseline (median)” value ([1]; 2 g/day) was 3.4%, the “IL-6 end-of-treatment value (median)” value ([1]; 2 g/day) was 3.0 pg/mL and the “IL-6 change from baseline (median)” value ([1]; 4 g/day) was 0.3%. The “IL-6 end-of-treatment value (median)” value ([1]; 4 g/day) was 2.4 pg/mL, the “Median placebo-adjusted percent change in LDL-C from baseline to study end” value (“Median placebo-adjusted percent change” below) ([2]; less-controlled diabetes (HbA1c ≧ median of 6.8%)) was −5.7% and the “Median placebo-adjusted percent change” value ([2]; total diabetes) was −6.3%. The “Median placebo-adjusted percent change” value ([2]; well-controlled diabetes (HbA1c < median of 6.8%)) was −6.6%, the “LDL-C levels between well-controlled, less-controlled and all diabetic subjects” value ([2]; twelve weeks) was “no significant decrease in LDL-C levels” and the “hsCRP end-of-treatment value, median” value ([3]; MARINE ITT, 2 g/day, week 12) was 2.4 mg/L. The “hsCRP change from baseline (median)” value ([3]; MARINE ITT, 4 g/day, week 12) was −2.5%, the “hsCRP end-of-treatment value, median” value ([3]; MARINE ITT, 4 g/day, week 12) was 2.2 mg/L and the “hsCRP median placebo-adjusted % change from baseline” value ([3]; MARINE, no statin, AMR101 2 g/day vs placebo, P 0.8297) was −2.7%. The “hsCRP change from baseline, median %” value ([3]; MARINE, no statin, AMR101 2 g/day, week 12) was 31.7%, the “hsCRP end-of-treatment value, median” value ([3]; MARINE, no statin, AMR101 2 g/day, week 12, baseline 2.2) was 2.5 mg/L and the “hsCRP median placebo-adjusted % change from baseline” value ([3]; MARINE, no statin, AMR101 4 g/day vs placebo, P 0.0311) was −27.4%. The “hsCRP change from baseline, median %” value ([3]; MARINE, no statin, AMR101 4 g/day, week 12) was 0.0%, the “hsCRP end-of-treatment value, median” value ([3]; MARINE, no statin, AMR101 4 g/day, week 12, baseline 2.2) was 2.2 mg/L and the “hsCRP median placebo-adjusted % change from baseline” value ([3]; MARINE, statin, AMR101 2 g/day vs placebo, P 0.1707) was −33.2%. The “hsCRP change from baseline, median %” value ([3]; MARINE, statin, AMR101 2 g/day, week 12) was 11.7%, the “hsCRP end-of-treatment value, median” value ([3]; MARINE, statin, AMR101 2 g/day, week 12, baseline 1.5) was 1.6 mg/L and the “hsCRP median placebo-adjusted % change from baseline” value ([3]; MARINE, statin, AMR101 4 g/day vs placebo, P 0.0098) was −67.9%. The “hsCRP change from baseline, median %” value ([3]; MARINE, statin, AMR101 4 g/day, week 12) was −30.6%, the “hsCRP end-of-treatment value, median” value ([3]; MARINE, statin, AMR101 4 g/day, week 12, baseline 1.9) was 1.3 mg/L and the “hsCRP median placebo-adjusted change from baseline” value ([3]; MARINE, 2 g/day, with concomitant statin therapy) was “statistically insignificant”. The “hsCRP median placebo-adjusted change from baseline” value ([3]; MARINE, 2 g/day, without concomitant statin therapy) was “statistically insignificant”, the “hsCRP median placebo-adjusted change from baseline” value ([3]; MARINE, 4 g/day, with concomitant statin therapy) was −67.9% and the “hsCRP median placebo-adjusted change from baseline” value ([3]; MARINE, 4 g/day, without concomitant statin therapy) was −27.4%. The “Each evaluated endpoint (TG, LDL-C, non-HDL-C, VLDL-C, Lp-PLA2, Apo B, TC, HDL-C, VLDL-TG, hs-CRP, oxLDL, RLP-C), adjusted for placebo” value ([4]; 2 g/day) was “showed a decrease”, the “Each evaluated endpoint (TG, LDL-C, non-HDL-C, VLDL-C, Lp-PLA2, Apo B, TC, HDL-C, VLDL-TG, hs-CRP, oxLDL, RLP-C), adjusted for placebo” value ([4]; 4 g/day) was “showed a decrease” and the “Placebo-adjusted effects on non-HDL-C, VLDL-C, Apo B, TC, VLDL-TG, hsCRP and oxLDL, less-controlled versus well-controlled subjects” value ([4]; 4 g/day, Table 7 and FIG. 3) was “more pronounced effects were observed in less-controlled diabetics”.
